# Data as given in patent publication US11725010B2, “Polyheterocyclic compounds as METTL3 inhibitors” (Storm Therapeutics Limited, priority 2019, dated 2023).
# Like-named read-outs stand apart in the source and are kept apart here.
# Key:
# METTL3/14 = METTL3/14 (Homo sapiens (Human), UniProt Q86U44)
# Caov-3 cells = experiment: Caov3 CTG proliferation assay; type: cell-based; conditions: Homo sapiens
# Method: CTG Assay (Caov3 Cell Line)
# Upon treatment, Coav-3 cells were incubated for 10 min at RT with the CellTiter-Glo reagent (G7571, Promega). Measurement of the luminescence signal was performed on a microplate reader (Ensight, PerkinElmer).
# Caov3 CTG Assay—Proliferation Assay
# KASUMI-1 cells = experiment: Kasumi cell assay (CellTiter-Glo cell growth); type: cell-based; conditions: Homo sapiens
# Method: Upon treatment, Kasumil cells were incubated for 10 min at RT with the CellTiter-Glo reagent (G7571, Promega). Measurement of the luminescence signal was performed on a microplate reader (Ensight, PerkinElmer).
# [1] = Caov-3, treated for 120 hours, CellTiter-Glo luminescence, read-out: Caov3 cells IC50
# [2] = Caov-3, 120 h, read-out: Caov3 cells IC50 nM
# [3] = Kasumi 1, treated for 120 hours, CellTiter-Glo luminescence, read-out: KASUMI1 cells IC50
# METTL3/14, sequence (Q86U44 whole entry): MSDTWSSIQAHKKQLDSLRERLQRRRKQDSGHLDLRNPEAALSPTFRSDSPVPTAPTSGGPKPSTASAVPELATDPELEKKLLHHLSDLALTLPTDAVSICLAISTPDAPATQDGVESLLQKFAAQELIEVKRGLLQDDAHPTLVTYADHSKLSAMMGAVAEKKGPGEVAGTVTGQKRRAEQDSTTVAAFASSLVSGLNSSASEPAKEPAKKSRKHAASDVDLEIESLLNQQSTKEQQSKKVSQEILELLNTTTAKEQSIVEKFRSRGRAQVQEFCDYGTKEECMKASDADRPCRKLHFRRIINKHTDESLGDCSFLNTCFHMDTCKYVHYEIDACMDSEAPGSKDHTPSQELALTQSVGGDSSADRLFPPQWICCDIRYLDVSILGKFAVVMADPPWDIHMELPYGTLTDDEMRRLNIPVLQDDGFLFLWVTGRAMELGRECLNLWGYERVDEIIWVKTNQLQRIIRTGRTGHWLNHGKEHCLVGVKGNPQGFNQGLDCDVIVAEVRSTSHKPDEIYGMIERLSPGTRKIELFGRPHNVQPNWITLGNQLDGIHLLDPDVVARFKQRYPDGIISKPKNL
# METTL3/14, sequence (Q9HCE5 whole entry partner): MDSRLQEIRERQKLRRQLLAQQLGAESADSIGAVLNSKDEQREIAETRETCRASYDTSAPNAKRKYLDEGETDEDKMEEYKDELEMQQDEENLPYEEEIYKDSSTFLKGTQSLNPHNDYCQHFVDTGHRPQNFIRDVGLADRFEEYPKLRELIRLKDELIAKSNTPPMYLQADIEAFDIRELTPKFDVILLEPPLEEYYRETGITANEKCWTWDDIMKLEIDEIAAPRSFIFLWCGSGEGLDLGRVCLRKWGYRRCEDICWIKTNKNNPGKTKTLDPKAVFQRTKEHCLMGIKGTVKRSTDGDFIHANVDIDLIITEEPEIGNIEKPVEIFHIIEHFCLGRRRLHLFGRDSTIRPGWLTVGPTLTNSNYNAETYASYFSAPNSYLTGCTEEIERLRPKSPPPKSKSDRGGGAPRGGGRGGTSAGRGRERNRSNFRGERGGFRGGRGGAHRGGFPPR
Structure (SMILES),IC50 (METTL3/14) [nM],IC50 (Caov-3 cells; [1]) [nM],other results
"O=C(NCc1ccc2cc(CNCC3CC(F)(F)C3)[nH]c2c1)c1cc(=O)n2ccccc2n1 [Compound 3, N-[[2-[[(3,3-difluorocyclobutyl)methylamino]methyl]-1H-indol-6-yl]methyl]-4-oxo-pyrido[1,2-a]pyrimidine-2-carboxamide]",6.1,,
"O=C(NCc1ccc2cc(CNCC3(O)CCC3)[nH]c2c1)c1cc(=O)n2ccccc2n1 [Compound 4, N-[[2-[[(1-hydroxycyclobutyl)methylamino]methyl]-1H-indol-6-yl]methyl]-4-oxo-pyrido[1,2-a]pyrimidine-2-carboxamide]",6.1,,
"O=C(NCc1ccc2cc(CNC34CC5CC(CC(C5)C3)C4)[nH]c2c1)c1cc(=O)n2ccccc2n1 [Compound 11, N-[[2-[(1-adamantylamino)methyl]-1H-indol-6-yl]methyl]-4-oxo-pyrido[1,2-a]pyrimidine-2-carboxamide]",6.1,607,
"O=C(NCc1ccc2cc(CNCC3(O)CCCC3)[nH]c2c1)c1cc(=O)n2ccccc2n1 [Compound 15, N-[[2-[[(1-hydroxycyclopentyl)methylamino]methyl]-1H-indol-6-yl]methyl]-4-oxo-pyrido[1,2-a]pyrimidine-2-carboxamide]",6.1,658,
"O=C(NCc1ccc2cc(CN3CC4CCC3CC4)[nH]c2c1)c1cc(=O)n2ccccc2n1 [Compound 21, N-[[2-(2-azabicyclo[2.2.2]octan-2-ylmethyl)-1H-indol-6-yl]methyl]-4-oxo-pyrido[1,2-a]pyrimidine-2-carboxamide]",,746,
"O=C(NCc1ccc2cc(CNCC3(O)CCCCC3)[nH]c2c1)c1cc(=O)n2ccccc2n1 [Compound 25, N-[[2-[[(1-hydroxycyclohexyl)methylamino]methyl]-1H-indol-6-yl]methyl]-4-oxo-pyrido[1,2-a]pyrimidine-2-carboxamide]",,732,
"O=C(NCc1ccc2cc(CNC3CCCC3)[nH]c2c1)c1cc(=O)n2ccccc2n1 [Compound 26, N-[[2-[(cyclopentylamino)methyl]-1H-indol-6-yl]methyl]-4-oxo-pyrido[1,2-a]pyrimidine-2-carboxamide]",6.1,274,
"O=C(NCc1ccc2cc(CNCC3CCCC3)[nH]c2c1)c1cc(=O)n2ccccc2n1 [Compound 27, N-[[2-[(cyclopentylmethylamino)methyl]-1H-indol-6-yl]methyl]-4-oxo-pyrido[1,2-a]pyrimidine-2-carboxamide]",6.1,420,
"O=C(NCc1ccc2cc(CNC3CCCCC3)[nH]c2c1)c1cc(=O)n2ccccc2n1 [Compound 30, N-[[2-[(cyclohexylamino)methyl]-1H-indol-6-yl]methyl]-4-oxo-pyrido[1,2-a]pyrimidine-2-carboxamide]",6.1,,
"CC(C)(C)CNCc1cc2ccc(CNC(=O)c3cc(=O)n4ccccc4n3)cc2[nH]1 [Compound 34, N-[[2-[(2,2-dimethylpropylamino)methyl]-1H-indol-6-yl]methyl]-4-oxo-pyrido[1,2-a]pyrimidine-2-carboxamide]",6.1,988,
"O=C(NCc1ccc2cc(CN[C@H]3CCC[C@@H]3O)[nH]c2c1)c1cc(=O)n2ccccc2n1 [Compound 36, N-{[2-({[(1S,2S)-2-hydroxycyclopentyl]amino}methyl)-1H-indol-6-yl]methyl}-4-oxo-4H-pyrido[1,2-a]pyrimidine-2-carboxamide]",6.1,,IC50 (Caov-3 cells; [2]): 973 nM
"O[C@@H]1CCC[C@@H]1NCc1cc2ccc(Cn3cc(-c4cccc5[nH]ncc45)nn3)cc2[nH]1 [Compound 54, (1R,2S)-2-[[6-[[4-(1H-indazol-4-yl)triazol-1-yl]methyl]-1H-indol-2-yl]methylamino]cyclopentanol]",,837,
"c1cc(-c2cn(Cc3ccc4cc(CNC5CCCC5)[nH]c4c3)nn2)c2cn[nH]c2c1 [Compound 55, N-[[6-[[4-(1H-indazol-4-yl)triazol-1-yl]methyl]-1H-indol-2-yl]methyl]cyclopentanamine]",6.1,764,
"OC1(CNCc2cc3ccc(Cn4cc(-c5cccc6[nH]ncc56)nn4)cc3[nH]2)CCC1 [Compound 57, 1-[[[6-[[4-(1H-indazol-4-yl)triazol-1-yl]methyl]-1H-indol-2-yl]methylamino]methyl]cyclobutanol]",6.1,1060,
"CC1(C)CN(Cc2cc3ccc(CNC(=O)c4cc(=O)n5ccccc5n4)cc3[nH]2)C1 [Compound 83, N-({2-[(3,3-dimethylazetidin-1-yl)methyl]-1H-indol-6-yl}methyl)-4-oxo-4H-pyrido[1,2-a]pyrimidine-2-carboxamide]",,,IC50 (KASUMI-1 cells; [3]): 3680 nM
"N#CC12CC(CNCc3cc4ccc(CNC(=O)c5cc(=O)n6ccccc6n5)cc4[nH]3)(C1)C2 [Compound 111, N-[(2-{[({3-cyanobicyclo[1.1.1]pentan-1-yl}methyl)amino]methyl}-1H-indol-6-yl)methyl]-4-oxo-4H-pyrido[1,2-a]pyrimidine-2-carboxamide]",,,IC50 (KASUMI-1 cells; [3]): 2290 nM

Structure (SMILES),IC50 (METTL3/14) [nM],IC50 (Caov-3 cells; [1]) [nM],other results
"O=C(NCc1cnc2cc(CNCC34CC(F)(C3)C4)[nH]c2c1)c1cc(=O)n2ccccc2n1 [Compound 127, N-[(2-{[({3-fluorobicyclo[1.1.1]pentan-1-yl}methyl)amino]methyl}-1H-pyrrolo[3,2-b]pyridin-6-yl)methyl]-4-oxo-4H-pyrido[1,2-a]pyrimidine-2-carboxamide]",6.1,624,
"CC1(C)CCN(Cc2cc3ccc(CNC(=O)c4cc(=O)n5ccccc5n4)cc3[nH]2)CC1 [Example 1, N-({2-[(4,4-dimethylpiperidin-1-yl)methyl]-1H-indol-6-yl}methyl)-4-oxo-4H-pyrido[1,2-a]pyrimidine-2-carboxamide]",,260,
"CC1(CNCc2cc3ccc(CNC(=O)c4cc(=O)n5ccccc5n4)cc3[nH]2)CC1 [Example 6, N-[[2-[[(1-methylcyclopropyl)methylamino]methyl]-1H-indol-6-yl]methyl]-4-oxo-pyrido[1,2-a]pyrimidine-2-carboxamide]",6.1,756,
"O=C(NCc1cnc2cc(CNCC3CCC3)[nH]c2c1)c1cc(=O)n2ccccc2n1 [Example 49, N-[[2-[(cyclobutylmethylamino)methyl]-1H-pyrrolo[3,2-b]pyridin-6-yl]methyl]-4-oxo-pyrido[1,2-a]pyrimidine-2-carboxamide]",,,IC50 (Caov-3 cells; [2]): 1060 nM
"c1cc(-c2cn(Cc3ccc4cc(CNCC5CCC5)[nH]c4c3)nn2)c2cn[nH]c2c1 [Example 58, N-(cyclobutylmethyl)-1-[6-[[4-(1H-indazol-4-yl)triazol-1-yl]methyl]-1H-indol-2-yl]methanamine]",6.1,702,
"c1cc(-c2cn(Cc3cnc4cc(CNCC5CCC5)[nH]c4c3)nn2)c2cn[nH]c2c1 [Example 59, N-(cyclobutylmethyl)-1-[6-[[4-(1H-indazol-4-yl)triazol-1-yl]methyl]-1H-pyrrolo[3,2-b]pyridin-2-yl]methanamine]",6.1,524,
"O=c1cc(-c2cn(Cc3ccc4cc(CNCC5CCC5)[nH]c4c3)nn2)nc2ccccn12 [Example 62, 2-[1-[[2-[(cyclobutylmethylamino)methyl]-1H-indol-6-yl]methyl]triazol-4-yl]pyrido[1,2-a]pyrimidin-4-one]",6.1,696,
"c1cc(-c2cn(Cc3ccc4cc(CNCC5CCC5)[nH]c4c3)cn2)c2cn[nH]c2c1 [Example 64, N-(cyclobutylmethyl)-1-[6-[[4-(1H-indazol-4-yl)imidazol-1-yl]methyl]-1H-indol-2-yl]methanamine]",,922,
c1cc(-c2nsc(Cc3ccc4cc(CNCC5CCC5)[nH]c4c3)n2)c2cn[nH]c2c1 [Example 65],16100,,
"CN(Cc1cc2ccc(CNC(=O)c3cc(=O)n4ccccc4n3)cc2[nH]1)CC1CCC1 [Example 70, N-[[2-[[cyclobutylmethyl(methyl)amino]methyl]-1H-indol-6-yl]methyl]-4-oxo-pyrido[1,2-a]pyrimidine-2-carboxamide]",,,"IC50 (KASUMI-1 cells; Kasumi 1, 120 h, read-out: KASUMI1 cells IC50 nM): 4900 nM"
"c1cc2cc(-c3cn(Cc4ccc5cc(CNCC6CCC6)[nH]c5c4)cn3)cnc2[nH]1 [Example 134, (cyclobutylmethyl)({6-[(4-{1H-pyrrolo[2,3-b]pyridin-5-yl}-1H-imidazol-1-yl)methyl]-1H-indol-2-yl}methyl)amine]",6.1,,
"c1cc(-c2cn(Cc3ccc4cc(CNCC5CCC5)[nH]c4c3)nn2)c2cncn2c1 [Example 135, (cyclobutylmethyl)({6-[(4-{imidazo[1,5-a]pyridin-8-yl}-1H-1,2,3-triazol-1-yl)methyl]-1H-indol-2-yl}methyl)amine]",,269,
"O=C(NCc1ccc2cc(CNCC3CCC3)[nH]c2c1)c1cnc2[nH]ccc2c1 [Example 137, N-[(2-{[(cyclobutylmethyl)amino]methyl}-1H-indol-6-yl)methyl]-1H-pyrrolo[2,3-b]pyridine-5-carboxamide]",6.1,1080,
"c1cc2cc(-c3cn(Cc4ccc5cc(CNCC6CCC6)[nH]c5c4)nn3)cnc2[nH]1 [Example 138, (cyclobutylmethyl)({6-[(4-{1H-pyrrolo[2,3-b]pyridin-5-yl}-1H-1,2,3-triazol-1-yl)methyl]-1H-indol-2-yl}methyl)amine]",6.1,,
"COc1cnc(C#N)c(-c2cn(Cc3ccc4cc(CNCC56CC(C5)C6)[nH]c4c3)nn2)c1 [Example 148, 3-[1-({2-[({(Bicyclo [1.1.1]pent-1-yl)methyl}amino)methyl]-1H-indol-6-yl}methyl)-1H-1,2,3-triazol-4-yl]-5-methoxy-2-pyridine-carbonitrile]",< 6.1,,
